The values that follow are results of earlier work, collected in patent US9572781B2, “Orally disintegrating tablet compositions comprising combinations of non-opioid and opioid analgesics” (Adare Pharmaceuticals, Inc., priority 2009, dated 2017).

On to `CC(=O)Nc1ccc(O)cc1` [acetaminophen], for which the Drug detectable entry (after about 8 hours) was “only traces”. For the same compound, the “Time to peak plasma concentrations” value (following oral administration) was 30 to 60 min.
